# Values of other authors, collected in patent EP3067353A1, “A PROCESS FOR THE PREPARATION OF SOLIFENACIN SALTS AND THEIR INCLUSION INTO PHARMACEUTICAL DOSAGE FORMS” (KRKA, D.D., Novo Mesto, priority 2008, dated 2010).
# Counter-ions that a name gives are not always drawn.
# How the values were obtained:
# [1] = relative humidity of 70% (room temperature)
structure (smiles),measurement,setting,value
O=C(O[C@H]1CN2CCC1CC2)N1CCc2ccccc2[C@@H]1c1ccccc1 [hydrochloride],impurities during long term storage,,increase of impurities during long term storage
same,hygroscopicity,[1],so hydroscopic as to deliquence
